In brackets after ≈: the same amount, converted by molar mass.
What was measured:
Assay type in all cases: cell-based
P. aeruginosa PAO1 = assay: MIC determination, broth microdilution (CLSI); conditions: Pseudomonas aeruginosa, PAO1, strain 6
E. coli J62-TEM-3 = assay: MIC determination, broth microdilution (CLSI); conditions: Escherichia coli, J62TEM3, read-out: strain 18 MIC, strain 18
strain 20 = assay: MIC determination, broth microdilution (CLSI)
S. aureus 133 = assay: MIC determination, broth microdilution (CLSI); conditions: Staphylococcus aureus, 133, strain 11; read-out: strain 11 MIC
[1] = system: P. aeruginosa 2297-con (AmpC derepressed); assay: MIC determination, broth microdilution (CLSI); conditions: Pseudomonas aeruginosa, read-out: strain 8 MIC, strain 8
K. pneumoniae 60 = assay: MIC determination, broth microdilution (CLSI); conditions: Klebsiella pneumoniae, 60, strain 2
B. fragilis 6688 = assay: MIC determination, broth microdilution (CLSI); conditions: Bacteroides fragilis, 6688, strain 15; read-out: strain 15 MIC
S. pneumoniae 113 = assay: MIC determination, broth microdilution (CLSI); conditions: Streptococcus pneumoniae, 113, strain 14; read-out: strain 14 MIC
M. catarrhalis ICB489 = assay: MIC determination, broth microdilution (CLSI); conditions: Moraxella catarrhalis, ICB489, strain 12
M. morganii 126/3048 = assay: MIC determination, broth microdilution (CLSI); conditions: Morganella morganii, 126/3048, strain 5
E. coli J62 = assay: MIC determination, broth microdilution (CLSI); conditions: Escherichia coli, J62, strain 17; read-out: strain 17 MIC
S. maltophilia ICB7569 = assay: MIC determination, broth microdilution (CLSI); conditions: Stenotrophomonas maltophilia, ICB7569, strain 10
E. cloacae 34654 = assay: MIC determination, broth microdilution (CLSI); conditions: Enterobacter cloacae, 34654, strain 3
H. influenzae ATCC 49247 = assay: MIC determination, broth microdilution (CLSI); conditions: Haemophilus influenzae, ATCC49247, strain 13; read-out: strain 13 MIC
C. freundii K21/3034 = assay: MIC determination, broth microdilution (CLSI); conditions: Citrobacter freundii, K21/3034, strain 4
strain 19 = assay: MIC determination, broth microdilution (CLSI)
[2] = system: P. aeruginosa 2297 (AmpC wt); assay: MIC determination, broth microdilution (CLSI); conditions: Pseudomonas aeruginosa, strain 7
E. coli ATCC25922 = assay: MIC determination, broth microdilution (CLSI); conditions: Escherichia coli, ATCC25922, strain 1
A. baumannii ATCC15308 = assay: MIC determination, broth microdilution (CLSI); conditions: Acinetobacter baumannii, ATCC15308, strain 9
strain 21 = assay: MIC determination, broth microdilution (CLSI)
C. perfringens DSM756 = assay: microbe, parasite or virus in culture; conditions: Clostridium perfringens, DSM756, read-out: strain 16 MIC, strain 16

Structure (SMILES)	MIC (P. aeruginosa PAO1) [µg/mL]	MIC (E. coli J62-TEM-3) [µg/mL]	MIC (strain 20) [µg/mL]	MIC (S. aureus 133) [µg/mL]	MIC [1] [µg/mL]	MIC (K. pneumoniae 60) [µg/mL]	MIC (B. fragilis 6688) [µg/mL]	MIC (S. pneumoniae 113) [µg/mL]	MIC (M. catarrhalis ICB489) [µg/mL]	MIC (M. morganii 126/3048) [µg/mL]	MIC (E. coli J62) [µg/mL]	MIC (S. maltophilia ICB7569) [µg/mL]	MIC (E. cloacae 34654) [µg/mL]	MIC (H. influenzae ATCC 49247) [µg/mL]	MIC (C. freundii K21/3034) [µg/mL]	MIC (strain 19) [µg/mL]	MIC [2] [µg/mL]	MIC (E. coli ATCC25922) [µg/mL]	MIC (A. baumannii ATCC15308) [µg/mL]	MIC (strain 21) [µg/mL]	also measured
C[C@@H]1[C@H](NC(=O)/C(=N\OCCOc2ccc(C(=N)N)cc2)c2csc(N)n2)C(=O)N1S(=O)(=O)O [Example 11, (2R,3S)-3-{[(2Z)-2-(2-Amino-1,3-thiazol-4-yl)-2-{[2-(4-carbamimidoylphenoxy)ethoxy]imino}acetyl]amino}-2-methyl-4-oxoazetidine-1-sulfonic acid]	1 (≈ 1.95 µM)	8 (≈ 15.6 µM)	0.25 (≈ 0.489 µM)	0.125 (≈ 0.244 µM)	16 (≈ 31.3 µM)	≤ 0.125	8 (≈ 15.6 µM)	4 (≈ 7.82 µM)	0.125 (≈ 0.244 µM)	≤ 0.063	0.25 (≈ 0.489 µM)	32 (≈ 62.6 µM)	≤ 0.063	0.5 (≈ 0.977 µM)	≤ 0.125	0.25 (≈ 0.489 µM)	2 (≈ 3.91 µM)	0.125 (≈ 0.244 µM)	0.5 (≈ 0.977 µM)	0.25 (≈ 0.489 µM)	–
C[C@H]1[C@H](NC(=O)/C(=N\OCCOc2ccc(C(=N)N)cc2)c2csc(N)n2)C(=O)N1OCS(=O)(=O)O [Example 12, {[(2S,3S)-3-{[(2Z)-2-(2-Amino-1,3-thiazol-4-yl)-2-{[2-(4-carbamimidoylphenoxy)ethoxy]imino}acetyl]amino}-2-methyl-4-oxoazetidin-1-yl]oxy}methanesulfonic acid]	4 (≈ 7.39 µM)	8 (≈ 14.8 µM)	0.25 (≈ 0.462 µM)	0.125 (≈ 0.231 µM)	–	0.25 (≈ 0.462 µM)	8 (≈ 14.8 µM)	32 (≈ 59.1 µM)	0.25 (≈ 0.462 µM)	0.25 (≈ 0.462 µM)	0.5 (≈ 0.923 µM)	8 (≈ 14.8 µM)	0.5 (≈ 0.923 µM)	≤ 0.063	0.25 (≈ 0.462 µM)	0.5 (≈ 0.923 µM)	8 (≈ 14.8 µM)	0.5 (≈ 0.923 µM)	4 (≈ 7.39 µM)	0.25 (≈ 0.462 µM)	MIC (C. perfringens DSM756): 16 µg/mL (≈ 29.5 µM)
Cc1cc(OCCO/N=C(\C(=O)N[C@@H]2C(=O)N(OS(=O)(=O)O)C2(C)C)c2csc(N)n2)ccc1C(=N)N [Example 13, (2Z)-2-(2-Amino-1,3-thiazol-4-yl)-2-{[2-(4-carbamimidoyl-3-methylphenoxy)ethoxy]imino}-N-[(3S)-2,2-dimethyl-4-oxo-1-(sulfooxy)azetidin-3-yl]ethanamide]	8 (≈ 14.4 µM)	32 (≈ 57.6 µM)	0.5 (≈ 0.9 µM)	≤ 0.063	8 (≈ 14.4 µM)	1 (≈ 1.8 µM)	4 (≈ 7.2 µM)	4 (≈ 7.2 µM)	0.125 (≈ 0.225 µM)	0.5 (≈ 0.9 µM)	0.5 (≈ 0.9 µM)	–	1 (≈ 1.8 µM)	≤ 0.063	0.25 (≈ 0.45 µM)	0.5 (≈ 0.9 µM)	16 (≈ 28.8 µM)	0.5 (≈ 0.9 µM)	1 (≈ 1.8 µM)	0.5 (≈ 0.9 µM)	MIC (C. perfringens DSM756): 2 µg/mL (≈ 3.6 µM)
C[C@H]1[C@H](NC(=O)/C(=N\OCCOc2ccc(C(=N)N)c(O)c2)c2csc(N)n2)C(=O)N1S(=O)(=O)O [Example 2, (2S,3S)-3-{[(2Z)-2-(2-Amino-1,3-thiazol-4-yl)-2-{[2-(4-carbamimidoyl-3-hydroxyphenoxy)ethoxy]imino}acetyl]amino}-2-methyl-4-oxoazetidine-1-sulfonic acid]	2 (≈ 3.79 µM)	32 (≈ 60.7 µM)	0.125 (≈ 0.237 µM)	0.25 (≈ 0.474 µM)	–	0.125 (≈ 0.237 µM)	16 (≈ 30.3 µM)	16 (≈ 30.3 µM)	≤ 0.063	≤ 0.063	0.25 (≈ 0.474 µM)	0.125 (≈ 0.237 µM)	0.25 (≈ 0.474 µM)	0.5 (≈ 0.948 µM)	0.125 (≈ 0.237 µM)	0.125 (≈ 0.237 µM)	–	0.125 (≈ 0.237 µM)	4 (≈ 7.58 µM)	0.25 (≈ 0.474 µM)	–
